Assays:
EL-4 leukemic cells = assay: Test 3: In-Vitro Test of Inhibition of Growth of Cancer Cell by Macrophage; type: cell-based; details: 8 mg/kg intraperitoneal to mice, macrophages collected after 4 days, mixed with EL-4 cells; control 80.2
Protocol: The results of the test of the action of the effective ingredient of the present invention on the macrophage will now be described with reference to the following Test 3. More specifically, the separated macrophage and EL-4 leukemic cell were mixed and cultured, and ^3 H-thymidine was added to a culture medium and the quantity of ^3 H-thymidine incorporated into the EL-4 cell was determined to examine the activity of the macrophage. When the macrophage is activated by administration of the effective ingredient of the present invention, inhibition of the growth of EL-4 cell, that is, phagocytosis of the cancer cell by the macrophage, is observed. Accordingly, if the take-in amount of ^3 H-thymidine is measured and this amount is reduced, it is confirmed that the macrophage has been activated. […] The dose was 8 mg per Kg of the body weight. To the control group, a physiological saline solution was similarly administered. After passage of 4 days, exuded abdominal cells were collected and deposited on a plastic Petri dish to collect macrophages. Then, 1×10^6 of so obtained macrophages and 1×10^5 of EL-4 leukemic cells of C57 BL/6J mouse were mixed and cultured in an RPMI 1640 culture medium to which 10% of bovine embryo serum was added (at 37° C. in the presence of 5% of CO2) for 24 hours. Then, 0.1μ Ci of ^3 H-thymidine was added and culturing was further conducted for 16 hours. Cells were collected on a filter paper from the culture medium and the amount of ^3 H-thymidine taken in was determined by a liquid scintillation counter. […] For comparison, the test was similarly carried out by using Levamisol hydrochloride.

delayed hypersensitivity = assay: Test 1: Test of Reinforcement of Delayed Hypersensitivity (picryl chloride); type: in vivo, ICR male mice; details: 50 mg/kg oral, simultaneously with sensitization; 24 h after challenge; control 29.6 ± 1.9; * P<0.05, ** P<0.01
Description: This system was used for the test of reinforcement of delayed hypersensitivity.
One group of eight ICR male mice, each having a body weight of about 30 g, were used for the test.
Sensitization was effected by coating a 7% solution of picryl chloride in a 4/1 mixture of olive oil and acetone on the shaved abdomen of the mouse.
Simultaneously with sensitization, a solution or suspension of the compound of the present invention in a 0.2% solution of carboxymethyl cellulose in a physiological saline was orally administered to the mouse at a dose of 50 mg per Kg of the body weight. To the control group, a 0.2% carboxymethyl cellulose solution in a physiological saline was similarly administered.
The delayed hypersensitivity was challenged 7 days after sensitization by gripping the ear of the mouse by a forceps wrapped with a felt impregnated with a 1% solution of picryl chloride in olive oil and coating the ear with the solution. The thickness of the ear was measured before challenging and 24 hours after challenging and the ratio of increase of the thickness (average value of both the ears in eight mice±standard deviation) was obtained as shown in Table 1.
For comparison, the test was similarly carried out by using Levamisole hydrochloride, and the obtained results are shown in Table 1. F.t tests were carried out. The group in which the test result was significant at a level of P<0.05 was marked by *, and the group in which the test result was significant at a level of P<0.01 was marked by **.

adjuvant arthritis = assay: Test 2: Adjuvant Arthritis Test; type: in vivo, SD male rats; details: 5 mg/kg subcutaneous, 9 times, left hind leg, * P<0.05, ** P<0.01; for Swelling Ratio (average value ± standard variation), 15 days: control 84.4 ± 9.0; for Swelling Ratio (average value ± standard variation), 18 days: control 103.2 ± 9.7; for Swelling Ratio (average value ± standard variation), 21 days: control 107.5 ± 13.3
Sarcoma 180 = assay: Test 5: Test of Antitumor Effect to Sarcoma 180 by Subcutaneous Administration; type: in vivo, ICR female mice; details: 20 mg/kg subcutaneous; for D: average diameter of tumor, 2 weeks: control 10.8; for D: average diameter of tumor, 4 weeks: control 16.6; for D: average diameter of tumor, 6 weeks: control 20.3; for D: average diameter of tumor, 8 weeks: control 31.3; for D: average diameter of tumor, 10 weeks: control 40.5; for N: number of living mice, 0 weeks / N: number of living mice, 2 weeks / N: number of living mice, 4 weeks / N: number of living mice, 6 weeks / N: number of living mice, 8 weeks / N: number of living mice, 10 weeks: of 6 mice; for N: number of living mice, 0 weeks / N: number of living mice, 2 weeks / N: number of living mice, 4 weeks / N: number of living mice, 6 weeks: control 6; for N: number of living mice, 8 weeks: control 4; for N: number of living mice, 10 weeks: control 1
Protocol: To the control group, a physiological saline solution was similarly administered. […] The diameter D (mm) of the tumor was measured, and the average value and the number N of the living mice were determined to obtain results shown in Table 4.

Structure (SMILES): CCN(CC)C(=O)N1CCN(c2ccc(Cl)cc2)CC1 [drawing 24]
- Take-in Ratio of 3H-thymidine (average value) (EL-4 leukemic cells): 20.5%

Structure (SMILES): CCOC(=O)c1ccc(N2CCN(C(=O)N(CC)CC)CC2)cc1 [drawing 14]
- Ratio of Increase of Ear Thickness (average value ± standard variation) (delayed hypersensitivity): 39.1 ± 4.0%

Structure (SMILES): CCN(CC)C(=O)N1CCN(c2ccc(C(=O)O)cc2)CC1 [drawing 21]
- Swelling Ratio (average value ± standard variation), 15 days (adjuvant arthritis): 65.0 ± 10.2%
- Swelling Ratio (average value ± standard variation), 18 days (adjuvant arthritis): 64.6 ± 7.9%
- Swelling Ratio (average value ± standard variation), 21 days (adjuvant arthritis): 70.8 ± 10.7%

Structure (SMILES): CCOC(=O)c1ccc(N2CCN(C(=O)N(CC)CC)CC2)cc1 [drawing 26]
- Take-in Ratio of 3H-thymidine (average value) (EL-4 leukemic cells): 30.3%

Structure (SMILES): CCN(CC)C(=O)N1CCN(c2ccc(C(C)=O)cc2)CC1 [drawing 28]
- Take-in Ratio of 3H-thymidine (average value) (EL-4 leukemic cells): 27.4%

Structure (SMILES): CCN(CC)C(=O)N1CCN(c2ccc(OC)cc2)CC1 [drawing 37]
- D: average diameter of tumor, 2 weeks (Sarcoma 180): 3.0 mm
- D: average diameter of tumor, 4 weeks (Sarcoma 180): 1.0 mm
- D: average diameter of tumor, 6 weeks (Sarcoma 180): 2.2 mm
- D: average diameter of tumor, 8 weeks (Sarcoma 180): 5.3 mm
- D: average diameter of tumor, 10 weeks (Sarcoma 180): 4.0 mm
- N: number of living mice, 0 weeks (Sarcoma 180): 6
- N: number of living mice, 2 weeks (Sarcoma 180): 6
- N: number of living mice, 4 weeks (Sarcoma 180): 6
- N: number of living mice, 6 weeks (Sarcoma 180): 6
- N: number of living mice, 8 weeks (Sarcoma 180): 6
- N: number of living mice, 10 weeks (Sarcoma 180): 6

Structure (SMILES): CCN(CC)C(=O)N1CCN(c2ccc(C(=O)O)cc2)CC1 [drawing 27]
- Take-in Ratio of 3H-thymidine (average value) (EL-4 leukemic cells): 29.8%

Structure (SMILES): CCN(CC)C(=O)N1CCN(c2ccc(C(C)=O)cc2)CC1 [drawing 22]
- Swelling Ratio (average value ± standard variation), 15 days (adjuvant arthritis): 61.4 ± 10.4%
- Swelling Ratio (average value ± standard variation), 18 days (adjuvant arthritis): 62.2 ± 8.8%
- Swelling Ratio (average value ± standard variation), 21 days (adjuvant arthritis): 68.4 ± 12.0%

Structure (SMILES): CCN(CC)C(=O)N1CCN(c2ccc(C(C)=O)cc2)CC1 [drawing 40]
- D: average diameter of tumor, 2 weeks (Sarcoma 180): 4.1 mm
- D: average diameter of tumor, 4 weeks (Sarcoma 180): 7.7 mm
- D: average diameter of tumor, 6 weeks (Sarcoma 180): 8.5 mm
- D: average diameter of tumor, 8 weeks (Sarcoma 180): 4.3 mm
- D: average diameter of tumor, 10 weeks (Sarcoma 180): 0 mm
- N: number of living mice, 0 weeks (Sarcoma 180): 6
- N: number of living mice, 2 weeks (Sarcoma 180): 6
- N: number of living mice, 4 weeks (Sarcoma 180): 6
- N: number of living mice, 6 weeks (Sarcoma 180): 6
- N: number of living mice, 8 weeks (Sarcoma 180): 6
- N: number of living mice, 10 weeks (Sarcoma 180): 6

Structure (SMILES): CCN(CC)C(=O)N1CCN(c2ccc(OC)cc2)CC1 [drawing 19]
- Swelling Ratio (average value ± standard variation), 15 days (adjuvant arthritis): 60.1 ± 11.3%
- Swelling Ratio (average value ± standard variation), 18 days (adjuvant arthritis): 57.1 ± 8.8%
- Swelling Ratio (average value ± standard variation), 21 days (adjuvant arthritis): 64.4 ± 10.5%

Structure (SMILES): CCN(CC)C(=O)N1CCN(c2ccc(Cl)cc2)CC1 [drawing 12]
- Ratio of Increase of Ear Thickness (average value ± standard variation) (delayed hypersensitivity): 42.3 ± 3.7%

Structure (SMILES): CCN(CC)C(=O)N1CCN(c2ccccc2)CC1 [drawing 35]
- D: average diameter of tumor, 2 weeks (Sarcoma 180): 2.9 mm
- D: average diameter of tumor, 4 weeks (Sarcoma 180): 4.1 mm
- D: average diameter of tumor, 6 weeks (Sarcoma 180): 4.8 mm
- D: average diameter of tumor, 8 weeks (Sarcoma 180): 1.0 mm
- D: average diameter of tumor, 10 weeks (Sarcoma 180): 0 mm
- N: number of living mice, 0 weeks (Sarcoma 180): 6
- N: number of living mice, 2 weeks (Sarcoma 180): 6
- N: number of living mice, 4 weeks (Sarcoma 180): 6
- N: number of living mice, 6 weeks (Sarcoma 180): 6
- N: number of living mice, 8 weeks (Sarcoma 180): 6
- N: number of living mice, 10 weeks (Sarcoma 180): 6

From patent publication US4446133A, “1-Phenyl-4-carbamoyl piperazine compounds, process for preparation thereof and utilizations thereof” (Misuitoatsu Chemicals, Inc., priority 1980, dated 1984)
